Measured values from patent US11981750B2 (priority 2016, dated 2024).
Starred links: 1 amine or outer side, 2 acyl side, 3 side chain; linkers in the order of their positions; H or OH if unused. Non-standard residues stand in square brackets, D forms with d. Residues, ends and D or L forms follow the SMILES beside them. *: point of attachment. TtdDga = O=C(COCC(=O)[*:2])NCCCOCCOCCOCCCN[*:1]; Arachidoyl = CCCCCCCCCCCCCCCCCCCC(=O)*; NMeV = CN[CH](C(=O)O)C(C)C

Key:
[1] = test system: anti-Map antibodies in sera from bovine infected by Map; assay: Antibody ELISA with bovine sera (Map-infected versus healthy controls); assay type: binding; conditions: for ROC analysis of ELISA antibody response, area under the curve: 60 MAP+ bovine sera and 53 control sera
[2] = test system: sera of animals infected by M. bovis; assay type: binding, bovine; conditions: serial twofold dilution of sera
[3] = test system: sheep sera naturally or experimentally infected with S-type strains of Map; assay: Antibody ELISA with sheep sera infected with S-type strains of Map; assay type: binding; conditions: control n=15, positive n=39
[4] = test system: PBMCs isolated from cows naturally infected with Map; assay: Flow cytometry of CD25+ T and B cells after PBMC stimulation with lipopeptides; assay type: cell-based, cattle
[5] = test system: PBMCs isolated from control cows and cows naturally infected with Map; assay: Cytokine secretion by PBMCs after 24-hour stimulation with Map lipopeptides; assay type: cell-based, cattle; conditions: 1, 5, 10 μg/ml
Protocol: Peripheral blood mononuclear cells (PBMCs) were isolated from control non-infected (n=4) and cattle naturally infected with C-type Map (n=4) to determine if lipoproteins, L3P and L5P (structures disclosed in FIG. 9), can elicit immunological responses. Sixty ml of blood was collected via jugular venipuncture into a syringe containing 2× acid-citrate-dextrose to obtain PBMCs.
PBMCs were resuspended at a final concentration of 8×10^6/ml in complete medium consisting of RPMI-1640 with 2 mM 1-glutamine and 25 mM HEPES (Gibco, Grand Island, NY) and supplemented with 10% fetal calf serum (Gibco), 100λ penicillin-streptomycin (Gibco). Cells were plated in 24-well culture plates and incubated for 24 hr at 39° C. in 5% CO2 in a humidified atmosphere with the following treatment groups, nonstimulated (NS; negative control), pokeweed mitogen (PWM, 10 μg/ml, positive control; Sigma, St. Louis, MO), and four antigens that included whole cell sonicated extracts of Map strains K-10 and S397 (10 μg/ml); lipoproteins L3P and L5P (1, 5, 10 μg/ml concentrations). The lipoproteins had to be solubilized in 100% methanol to 1 mg/ml concentrations and then diluted in the complete medium to final concentrations indicated above. […] After a 24-hr stimulation, the supernatants were harvested by centrifugation at 400×g for 5 min. Supernatants were removed without disturbing the cells in culture and stored at −20° C. until cytokine measurement. Cytokines IFN-γ, IL-1, IL-2, IL-4, IL-6 and TNF-α were all measured using Ciraplex bovine multiplex cytokine arrays (Aushon Biosystems, Billerica, MA).

physchem = conditions: organic solvents (DMSO, CHCl3, CH2Cl2, MeOH and EtOH)
[6] = PBMCs from infected cows, lipopeptide 1, 5, 10 μg/ml

Structure (SMILES) | ELISA antibody response against the lipid moiety of L5P, discrimination of control from infected animals ([1]; lipid solubilized in ethanol, bovine sera) | ROC analysis of ELISA antibody response, area under the curve ([1]; antigen in ethanol) | cross-reaction with sera of animals infected by M. bovis [2] | immunodetection of L5P by sheep sera (anti-L5P antibodies) [3] | CD25+ B cells response [4, 6] | proliferation of CD25+ CD8 T cells [4, 6] | CD25+ CD4 or CD25+ γδ T cell populations, difference between L3P and L5P ([4]; data not shown) | effect of lipopeptide concentration on TNF-α secretion by PBMCs ([5]; P<0.0006) | IFN-γ cytokine response ([5]; 24-hr stimulation) | IL-1β cytokine response ([5]; 24-hr stimulation) | TNF-α cytokine response ([5]; 24-hr stimulation) | solubility in water or aqueous buffers | solubility (physchem) | ROC analysis of ELISA antibody response, area under the curve ([1]; antigen in PBS)
CCCCCCCCCCCCCCCCCCCC(=O)O [lipid moiety, eicosanoic acid] | does not discriminate control from infected animals | – | – | – | – | – | – | – | – | – | – | – | – | –
CCCCCCCCCCCCCCCCCCCC(=O)N[C@H](Cc1ccccc1)C(=O)N(C)[C@H](C(=O)N[C@H](C(=O)N[C@@H](Cc1ccccc1)C(=O)N[C@@H](C)C(=O)OC)[C@@H](C)CC)C(C)C [L5P] (Arachidoyl-[dF][NMeV]IFA-OMe) | – | 0.97 | does not cross-react | less than half of the sheep sera do not appear to contain anti-L5P antibodies | stronger response compared to L3P | remained static | No significant differences | dose-dependent effect | elicited cytokine responses | elicited cytokine responses | elicited cytokine responses | insoluble | < 1000 µg/mL | –
CCC(C)C(NC(=O)C(C(C)C)N(C)C(=O)C(N)Cc1ccccc1)C(=O)NC(Cc1ccccc1)C(=O)NC(C)C(=O)NCCCOCCOCCOCCCNC(=O)COCC(=O)O (stereo not drawn) [L5P^H2O] (H-F[NMeV]IFA-TtdDga; configuration not given here) | – | 0.9313 | – | – | – | – | – | – | – | – | – | – | – | 0.9453
